Assay results reported in patent US8022068B2, “Substituted piperidines as renin inhibitors” (Novartis AG, priority 2008, dated 2011).

Molecular target: T1, renin (Homo sapiens, UniProt P00797)
T1 construct: This test measures the formation of angiotensin I in human plasma; from tissue; host or cells: human plasma
T1 sequence (P00797 67-406): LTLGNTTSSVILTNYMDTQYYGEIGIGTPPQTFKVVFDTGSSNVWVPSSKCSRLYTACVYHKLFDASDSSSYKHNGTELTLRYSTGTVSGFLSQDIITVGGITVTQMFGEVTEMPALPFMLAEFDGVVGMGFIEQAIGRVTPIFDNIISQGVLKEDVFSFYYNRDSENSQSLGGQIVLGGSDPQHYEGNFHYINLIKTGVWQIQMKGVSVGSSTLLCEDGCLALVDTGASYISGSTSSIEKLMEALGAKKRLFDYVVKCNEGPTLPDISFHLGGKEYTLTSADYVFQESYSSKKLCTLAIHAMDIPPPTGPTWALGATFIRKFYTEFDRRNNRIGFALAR
Experiment: formation of angiotensin I in human plasma (Nussberger et al.), radioimmunoassay
Format: biochemical
Settings: angiotensin I determined by radioimmunoassay, read-out: IC50, inhibition of the formation of angiotensin I
Description: The effect of renin inhibitors is detected inter alia experimentally by means of in vitro tests where the reduction in the formation of angiotensin I is measured in various systems (human plasma, purified human renin together with synthetic or natural renin substrate). The following in vitro test of Nussberger et al. (1987) J. Cardiovascular Pharmacol., Vol. 9, pp. 39-44, is used inter alia. This test measures the formation of angiotensin I in human plasma. The amount of angiotensin I formed is determined in a subsequent radioimmunoassay. The effect of inhibitors on the formation of angiotensin I is tested in this system by adding various concentrations of these substances. The IC50 is defined as the concentration of the particular inhibitor which reduces the formation of angiotensin I by 50%. The compounds of the present invention show inhibitory effects in the in vitro systems at minimal concentrations of about 10^−6 mol/l to about 10^−10 mol/l.

IC50 [nM]	Structure (SMILES)
0.1 to 10	COCCCN1CCOc2ccc(CO[C@H]3CN[C@@H](Cc4nncn4C)C[C@@H]3c3ccc(COC[C@@H](C)COC)cc3)cc21 [Example 8, 6-[(3R,4R,6R)-4-[4-((S)-3-Methoxy-2-methyl-propoxymethyl)-phenyl]-6-(4-methyl-4H-[1,2,4]triazol-3-ylmethyl)-piperidin-3-yloxymethyl]-4-(3-methoxy-propyl)-3,4-dihydro-2H-benzo[1,4]oxazine]
0.1 to 10	COCCCN1CCOc2ccc(CO[C@H]3CN[C@@H](CN4CCOCC4)C[C@@H]3c3ccc(COC[C@@H](C)COC)cc3)cc21 [Example 10, 6-{(3R,4R,6R)-4-[4-((S)-3-Methoxy-2-methyl-propoxymethyl)-phenyl]-6-morpholin-4-ylmethyl-piperidin-3-yloxymethyl}-4-(3-methoxy-propyl)-3,4-dihydro-2H-benzo[1,4]oxazine]
